Target: T1, Angiotensin II receptor (AT-1) type-1 (Rattus norvegicus, UniProt P29089+P25095)
T1 sequence (P29089 whole entry): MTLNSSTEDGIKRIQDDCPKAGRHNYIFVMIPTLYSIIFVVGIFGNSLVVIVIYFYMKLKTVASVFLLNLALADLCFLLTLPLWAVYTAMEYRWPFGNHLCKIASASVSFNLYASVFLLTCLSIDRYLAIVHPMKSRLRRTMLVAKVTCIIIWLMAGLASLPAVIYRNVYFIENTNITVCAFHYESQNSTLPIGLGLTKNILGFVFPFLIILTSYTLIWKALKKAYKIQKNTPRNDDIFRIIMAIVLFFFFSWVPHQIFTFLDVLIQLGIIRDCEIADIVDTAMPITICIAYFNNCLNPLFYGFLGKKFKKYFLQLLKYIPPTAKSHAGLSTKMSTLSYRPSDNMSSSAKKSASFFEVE
T1 sequence (P25095 whole entry): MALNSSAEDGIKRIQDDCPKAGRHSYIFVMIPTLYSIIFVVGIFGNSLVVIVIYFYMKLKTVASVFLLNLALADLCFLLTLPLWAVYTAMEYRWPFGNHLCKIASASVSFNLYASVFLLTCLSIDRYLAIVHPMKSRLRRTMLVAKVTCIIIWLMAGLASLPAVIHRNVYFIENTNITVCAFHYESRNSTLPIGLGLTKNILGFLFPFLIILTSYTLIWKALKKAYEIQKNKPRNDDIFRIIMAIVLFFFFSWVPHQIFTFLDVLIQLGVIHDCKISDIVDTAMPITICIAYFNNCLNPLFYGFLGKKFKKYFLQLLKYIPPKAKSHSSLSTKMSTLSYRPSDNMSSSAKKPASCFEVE
Assay: Inhibitory concentration that gives 50% displacement of specific binding at labeled angiotensin II type 1 receptor in rat adrenal cortical membranes.
Type: cell membranes, Membrane

CCCCc1nc(Cl)c(CC(=O)OC)n1Cc1ccc(NC(=O)c2ccccc2NS(=O)(=O)C(F)(F)F)cc1 showed an IC50 of 0.5 µM.

In the case of CCCCc1nc(Cl)c(CC(=O)O)n1Cc1ccc(CC(=O)O)cc1, the IC50 is reported as 13 µM.

For CCCCc1nc(Cl)c(COC)n1Cc1ccc(NC(=O)Cc2ccccc2CC(=O)O)cc1, the IC50 was 2.8 µM.

— ChEMBL document CHEMBL1145976, “Non-peptide angiotensin II receptor antagonists: chemical feature based pharmacophore identification” (J Med Chem, 2003)
